These results are taken from US6387880B1, “Transdermal N-[N-[5-[4-(aminoiminomethly)phenyl]-1-oxopentyl]-L-α-aspartyl]-L-phenylalainine or its esters and their pharmaceutically acceptable salts” (G.D. Searle & Co., priority 1996, dated 2002).

This data set in a line: Transdermal shaved rat model: radiolabelled compound in gel patch, amount recovered in urine and feces. The conditions noted are these: for Mg transported in Feces 24 Hrs / Mg transported in Feces 48 Hrs / Mg transported in Feces 72 Hrs / Mg transported in Urine 24 Hrs / Mg transported in Urine 48 Hrs / Mg transported in Urine 72 Hrs / Mg transported Total (feces + urine) / Mg transported Total, Mean: diethyl ester section, transdermal patch; for Mg transported in Feces 24 Hrs / Mg transported in Feces 48 Hrs / Mg transported in Feces 72 Hrs / Mg transported in Urine 24 Hrs / Mg transported in Urine 48 Hrs / Mg transported in Urine 72 Hrs / Mg transported Total (feces + urine): individual rats; for Mg transported Total (feces + urine): 72 Hrs; for Mg transported Total, Mean: mean of 4 rats.

Where “and” joins values, the source holds several entries; their conditions need not be identical. Equal values may be shown once.

Text: Rats were anesthetized with N2O/O2 and [sequence] fluorocarbon anesthesia using a metering device (Quantifier VMC Anesthesia Machine, Matrix Media Inc.) The rat's back was carefully shaved using an electric razor the day before the transdermal experiment, and no abrasions in the skin surface were apparent.
Compound was applied to the skin using a Hilltop Chambers® transdermal delivery plastic device, in which the compound was contained in a 3% hydroxypropyl cellulose gel. The device was glued in place using cyanomethacrylate (Superbinder 495, Newark Electronics).
The aqueous formulation was 2% in N-[N-[5-[4-(aminoiminomethyl)phenyl]-1-oxopentyl]-L-α-aspartyl]-L-phenylalanine, monohydrochloride (10 mg N-[N-[5-[4-(aminoiminomethyl)phenyl]-1-oxopentyl]-L-α-aspartyl]-L-phenylalanine, monohydrochloride 0.5 ml gel/2.5 cm^2 patch). N(N-[5-[4-(aminoiminomethyl)-phenyl]-1-oxopentyl]-L-α-aspartyl]-L-phenylalanine, monohydrochloride was neutralized to pH 7.4 with KOH and buffered with 5 mM HEPES N-[2-hydroxyethyl] piperazine-N′-[2-ethanesulfonic acid]in 90% water, 10% propylene glycol. The N-methyl pyrrolidone formulation was made by dissolving 100 mg [^3H] N-[N-[5-[4-(aminoiminomethyl)phenyl]-1-oxopentyl]-L-α-aspartyl]-L-phenylalanine, monohydrochloride [15 microcuries] in 400 microliters N-methyl pyrrolidone. The 0.5 ml solution was made into a gel by adding 15 mg hydroxypropyl cellulose and incubating at ambient temperatures for 16 hours. Thirty microcuries [^3H] N-[N-[5-[4-(aminoiminomethyl)phenyl]-1-oxopentyl]-L-α-aspartyl]-L-phenylalanine, monohydrochloride (specific activity: 928 mCurie/mmol) was added as a tracer. The amount of compound in a sample was calculated from the number of counts detected and the specific radioactivity of the compound in the patch.
Urine and feces were collected daily after patch application as indicated in the Table I. Counts were combined to achieve the total amount delivered. Urine was counted directly by scintillography (Hionic Fluid, Packard Co., Mark Ill.), while feces, were processed by mechanical mixing in saline followed by oxidization of a dried aliquot to tritiated water in an oxidizer (Oxidizer Machine, Packard).

`CCOC(=O)C[C@H](NC(=O)CCCCc1ccc(C(=N)N)cc1)C(=O)N[C@@H](Cc1ccccc1)C(=O)OCC` [N-[N-[5-[4-(aminoiminomethyl)phenyl]-1-oxopentyl]-L-α-aspartyl]-L-phenylalanine, diethyl ester] displayed an average amount delivered (2.5 cm^2 patch, rat) of 4.6 ± 1.9 mg. Moreover, under “Ethanol”, the “Mg transported in Feces 24 Hrs” value is 0.05 Mg and 0.01 Mg (2×) and 0.04 Mg; the “Mg transported in Feces 48 Hrs” value is 3.16 Mg and 2.44 Mg and 4.09 Mg and 1.20 Mg; the “Mg transported in Feces 72 Hrs” value was 1.51 Mg and 2.33 Mg and 1.67 Mg and 0.43 Mg; the “Mg transported in Urine 24 Hrs” value is 0.02 Mg and 0.01 Mg and 0.00 Mg (2×). Also, for the setting “Ethanol”, the “Mg transported in Urine 48 Hrs” value is 0.27 Mg and 0.12 Mg and 0.16 Mg and 0.13 Mg; the “Mg transported in Urine 72 Hrs” value was 0.42 Mg and 0.19 Mg and 0.11 Mg (2×); the “Mg transported Total (feces + urine)” value is 5.43 Mg and 5.10 Mg and 6.07 Mg and 1.88 Mg; the “Mg transported Total, Mean” value was determined as 4.62 Mg. Under “Saline”, the “Mg transported in Feces 24 Hrs” value was 0.48 Mg and 0.67 Mg and 0.02 Mg (2×); the “Mg transported in Feces 48 Hrs” value was 4.59 Mg and 3.88 Mg and 0.61 Mg and 1.21 Mg; the “Mg transported in Feces 72 Hrs” value was 0.84 Mg and 1.17 Mg and 0.49 Mg and 0.67 Mg; the “Mg transported in Urine 24 Hrs” value is 0.19 Mg and 0.17 Mg and 0.00 Mg (2×). Further, for the setting “Saline”, the “Mg transported in Urine 48 Hrs” value is 0.20 Mg and 0.16 Mg and 0.15 Mg and 0.13 Mg; the “Mg transported in Urine 72 Hrs” value is 0.09 Mg and 0.11 Mg and 0.05 Mg and 0.10 Mg; the “Mg transported Total (feces + urine)” value was 6.39 Mg and 6.16 Mg and 1.32 Mg and 2.09 Mg; the “Mg transported Total, Mean” value stood at 3.99 Mg.
